According to patent US20060019951A1, “Vacuolins” (CBR Institute for Biomedical Research, priority 2002, published 2006):

Tested on: vacuole formation in cells exposed to a vacuolin
Assay: Conditions under which vacuole formation is blocked in cells exposed to a vacuolin
Type: cell-based
Conditions: FIGS. 8-10
Excerpt: Additional studies were directed at identifying conditions under which vacuole formation is blocked (see, for example, FIGS. 8-10). […] It is likely that the intravacuolar pH is higher than the low pH of lysosomes; the vacuoles are likely to accumulate Cl ions (see, for example, FIG. 11).

CO/C1=C\C(C)=C\[C@@H](C)[C@@H](O)[C@@H](C)C/C(C)=C/C=C/[C@H](OC)[C@@H]([C@@H](C)[C@@H](O)[C@H](C)[C@@]2(O)C[C@@H](O)[C@H](C)[C@@H](C(C)C)O2)OC1=O [bafilomycin A]
effect on vacuole formation in cells exposed to a vacuolin: inhibited
